# From PubChem BioAssay (NCI)
#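 Each compound was tested at five concentrations against cells in 96-well plates for 48 hours. Here, GI50 denotes the concentration required for 50% inhibition of growth. TGI denotes the concentration required for complete inhibition of growth.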
# Tests used:
# Assay in all cases: NCI anticancer screen, dose series, 48 h
# EKVX NSCLC = test system: EKVX NSCLC
# SNB-75 CNS = test system: SNB-75 CNS
# ACHN renal = test system: ACHN renal
# COLO 205 colon = test system: COLO 205 colon
# CAKI-1 renal = test system: CAKI-1 renal
# MDA-N = test system: MDA-N
# MDA-MB-435 = test system: MDA-MB-435
# OVCAR-3 ovarian = test system: OVCAR-3 ovarian
# TK-10 renal = test system: TK-10 renal
# SF-268 CNS = test system: SF-268 CNS
# HOP-92 NSCLC = test system: HOP-92 NSCLC
# PC-3 prostate = test system: PC-3 prostate
# MDA-MB-231 breast = test system: MDA-MB-231 breast
# SW-620 colon = test system: SW-620 colon
# UACC-257 melanoma = test system: UACC-257 melanoma
# OVCAR-4 ovarian = test system: OVCAR-4 ovarian
# NCI-H23 lung = test system: NCI-H23 lung
# SK-MEL-5 melanoma = test system: SK-MEL-5 melanoma
# BT-549 breast = test system: BT-549 breast
# OVCAR-8 ovarian = test system: OVCAR-8 ovarian
# K-562 leukemia = test system: K-562 leukemia
# UACC-62 melanoma = test system: UACC-62 melanoma
# HCC-2998 colon = test system: HCC-2998 colon
# IGROV1 ovarian = test system: IGROV1 ovarian
# SK-MEL-2 melanoma = test system: SK-MEL-2 melanoma
# MALME-3M melanoma = test system: MALME-3M melanoma
# OVCAR-5 ovarian = test system: OVCAR-5 ovarian
# HCT-15 colon = test system: HCT-15 colon
# RXF 393 renal = test system: RXF 393 renal
# KM12 colon = test system: KM12 colon
# SK-OV-3 ovarian = test system: SK-OV-3 ovarian
# DU-145 prostate = test system: DU-145 prostate
# SF-539 CNS = test system: SF-539 CNS
# HS 578T breast = test system: HS 578T breast
# SK-MEL-28 melanoma = test system: SK-MEL-28 melanoma
# A549 NSCLC = test system: A549 NSCLC
# M14 melanoma = test system: M14 melanoma
# SF-295 CNS = test system: SF-295 CNS
# NCI/ADR-RES ovarian = test system: NCI/ADR-RES ovarian
# HOP-62 NSCLC = test system: HOP-62 NSCLC
# LOX IMVI melanoma = test system: LOX IMVI melanoma
# NCI-H226 lung = test system: NCI-H226 lung
# UO-31 renal = test system: UO-31 renal
# SNB-19 CNS = test system: SNB-19 CNS
# HL-60(TB) leukemia = test system: HL-60(TB) leukemia
# CCRF-CEM leukemia = test system: CCRF-CEM leukemia
# RPMI-8226 leukemia = test system: RPMI-8226 leukemia
# NCI-H522 lung = test system: NCI-H522 lung
# HT29 colon = test system: HT29 colon
# U251 CNS = test system: U251 CNS
# SN12C renal = test system: SN12C renal
# NCI-H460 lung = test system: NCI-H460 lung
# T-47D breast = test system: T-47D breast
# A498 renal = test system: A498 renal
# HCT-116 colon = test system: HCT-116 colon
# SR leukemia = test system: SR leukemia
# MOLT-4 leukemia = test system: MOLT-4 leukemia
# 786-0 renal = test system: 786-0 renal
# MCF7 breast = test system: MCF7 breast
structure (smiles),measurement,setting,value
O=C(O)CN1CCCC(Cc2c[nH]c3ccccc23)C1 (stereo not given),TGI,EKVX NSCLC,> 100 µM
same,TGI,SNB-75 CNS,> 100 µM
same,TGI,ACHN renal,> 100 µM
same,TGI,COLO 205 colon,> 100 µM
same,TGI,CAKI-1 renal,> 100 µM
same,TGI,MDA-N,> 100 µM
same,TGI,MDA-MB-435,> 100 µM
same,TGI,OVCAR-3 ovarian,> 100 µM
same,TGI,TK-10 renal,> 100 µM
same,TGI,SF-268 CNS,> 100 µM
same,TGI,HOP-92 NSCLC,> 100 µM
same,TGI,PC-3 prostate,> 100 µM
same,TGI,MDA-MB-231 breast,> 100 µM
same,TGI,SW-620 colon,> 100 µM
same,TGI,UACC-257 melanoma,> 100 µM
same,TGI,OVCAR-4 ovarian,> 100 µM
same,TGI,NCI-H23 lung,> 100 µM
same,TGI,SK-MEL-5 melanoma,> 100 µM
same,TGI,BT-549 breast,> 100 µM
same,TGI,OVCAR-8 ovarian,> 100 µM
same,TGI,K-562 leukemia,> 100 µM
same,TGI,UACC-62 melanoma,> 100 µM
same,TGI,HCC-2998 colon,> 100 µM
same,TGI,IGROV1 ovarian,> 100 µM
same,TGI,SK-MEL-2 melanoma,> 100 µM
same,TGI,MALME-3M melanoma,> 100 µM
same,TGI,OVCAR-5 ovarian,> 100 µM
same,TGI,HCT-15 colon,> 100 µM
same,TGI,RXF 393 renal,> 100 µM
same,TGI,KM12 colon,> 100 µM
same,TGI,SK-OV-3 ovarian,> 100 µM
same,TGI,DU-145 prostate,> 100 µM
same,TGI,SF-539 CNS,> 100 µM
same,TGI,HS 578T breast,> 100 µM
same,TGI,SK-MEL-28 melanoma,> 100 µM
same,TGI,A549 NSCLC,> 100 µM
same,TGI,M14 melanoma,> 100 µM
same,TGI,SF-295 CNS,> 100 µM
same,TGI,NCI/ADR-RES ovarian,> 100 µM
same,TGI,HOP-62 NSCLC,> 100 µM
same,TGI,LOX IMVI melanoma,> 100 µM
same,TGI,NCI-H226 lung,> 100 µM
same,TGI,UO-31 renal,> 100 µM
COc1cc(OC)c(/C=C/C(=O)c2ccc(Nc3ncnc4ccccc34)cc2)c(OC)c1,GI50,EKVX NSCLC,1.69 µM
same,TGI,EKVX NSCLC,8.99 µM
same,GI50,SNB-75 CNS,0.305 µM
same,TGI,SNB-75 CNS,1.55 µM
same,GI50,ACHN renal,1.83 µM
same,TGI,ACHN renal,17.7 µM
same,GI50,SNB-19 CNS,1.23 µM
same,TGI,SNB-19 CNS,14.5 µM
same,GI50,COLO 205 colon,0.614 µM
same,TGI,COLO 205 colon,2.22 µM
same,GI50,HL-60(TB) leukemia,0.389 µM
same,TGI,HL-60(TB) leukemia,2.19 µM
same,GI50,CAKI-1 renal,1.31 µM
same,TGI,CAKI-1 renal,15.2 µM
same,GI50,CCRF-CEM leukemia,0.629 µM
same,TGI,CCRF-CEM leukemia,5.51 µM
same,GI50,MDA-MB-435,0.13 µM
same,TGI,MDA-MB-435,0.522 µM
same,GI50,OVCAR-3 ovarian,0.365 µM
same,TGI,OVCAR-3 ovarian,1.43 µM
same,GI50,RPMI-8226 leukemia,0.687 µM
same,GI50,NCI-H522 lung,0.296 µM
same,TGI,NCI-H522 lung,1.44 µM
same,GI50,TK-10 renal,1.54 µM
same,TGI,TK-10 renal,3.68 µM
same,GI50,SF-268 CNS,1.37 µM
same,TGI,SF-268 CNS,4.4 µM
same,GI50,HT29 colon,0.364 µM
same,TGI,HT29 colon,1.39 µM
same,GI50,HOP-92 NSCLC,1.08 µM
same,TGI,HOP-92 NSCLC,3.89 µM
same,GI50,U251 CNS,0.686 µM
same,TGI,U251 CNS,2.73 µM
same,GI50,PC-3 prostate,0.707 µM
same,TGI,PC-3 prostate,8.33 µM
same,GI50,MDA-MB-231 breast,1.43 µM
same,TGI,MDA-MB-231 breast,4.11 µM
same,GI50,SW-620 colon,0.403 µM
same,TGI,SW-620 colon,2.64 µM
same,GI50,UACC-257 melanoma,1.24 µM
same,TGI,UACC-257 melanoma,3.89 µM
same,GI50,OVCAR-4 ovarian,1.21 µM
same,TGI,OVCAR-4 ovarian,3.05 µM
same,GI50,SN12C renal,1.66 µM
same,TGI,SN12C renal,10 µM
same,GI50,NCI-H23 lung,0.843 µM
same,TGI,NCI-H23 lung,11.5 µM
same,GI50,SK-MEL-5 melanoma,0.426 µM
same,TGI,SK-MEL-5 melanoma,1.98 µM
same,GI50,BT-549 breast,1.04 µM
same,TGI,BT-549 breast,3.62 µM
same,GI50,OVCAR-8 ovarian,1.34 µM
same,TGI,OVCAR-8 ovarian,3.54 µM
same,GI50,NCI-H460 lung,0.394 µM
same,TGI,NCI-H460 lung,2.01 µM
same,GI50,UACC-62 melanoma,0.599 µM
same,TGI,UACC-62 melanoma,2.18 µM
same,GI50,HCC-2998 colon,1.94 µM
same,TGI,HCC-2998 colon,14.2 µM
same,GI50,IGROV1 ovarian,1.93 µM
same,TGI,IGROV1 ovarian,20.3 µM
same,GI50,SK-MEL-2 melanoma,1.01 µM
same,TGI,SK-MEL-2 melanoma,7.36 µM
same,GI50,MALME-3M melanoma,0.799 µM
same,TGI,MALME-3M melanoma,2.65 µM
same,GI50,OVCAR-5 ovarian,1.88 µM
same,TGI,OVCAR-5 ovarian,5.32 µM
same,GI50,HCT-15 colon,0.798 µM
same,TGI,HCT-15 colon,24.8 µM
same,GI50,T-47D breast,1.51 µM
same,TGI,T-47D breast,14.3 µM
same,GI50,RXF 393 renal,0.488 µM
same,TGI,RXF 393 renal,1.95 µM
same,GI50,KM12 colon,0.51 µM
same,TGI,KM12 colon,> 43.9 µM
same,GI50,SK-OV-3 ovarian,1.02 µM
same,TGI,SK-OV-3 ovarian,2.74 µM
same,GI50,DU-145 prostate,1.45 µM
same,TGI,DU-145 prostate,3.42 µM
same,GI50,SF-539 CNS,0.837 µM
same,TGI,SF-539 CNS,2.31 µM
same,GI50,HS 578T breast,0.725 µM
same,TGI,HS 578T breast,5.66 µM
same,GI50,A498 renal,0.282 µM
same,TGI,A498 renal,2.13 µM
same,GI50,HCT-116 colon,0.45 µM
same,TGI,HCT-116 colon,2.04 µM
same,GI50,SR leukemia,0.142 µM
same,TGI,SR leukemia,1.1 µM
same,GI50,MOLT-4 leukemia,0.898 µM
same,TGI,MOLT-4 leukemia,> 100 µM
same,GI50,SK-MEL-28 melanoma,0.94 µM
same,TGI,SK-MEL-28 melanoma,3.03 µM
same,GI50,A549 NSCLC,0.665 µM
same,TGI,A549 NSCLC,3.76 µM
same,GI50,M14 melanoma,0.575 µM
same,TGI,M14 melanoma,2.5 µM
same,GI50,SF-295 CNS,0.353 µM
same,TGI,SF-295 CNS,1.92 µM
same,GI50,NCI/ADR-RES ovarian,0.394 µM
same,TGI,NCI/ADR-RES ovarian,2.55 µM
same,GI50,786-0 renal,1.47 µM
same,TGI,786-0 renal,3.55 µM
same,GI50,HOP-62 NSCLC,0.966 µM
same,TGI,HOP-62 NSCLC,2.32 µM
same,GI50,MCF7 breast,0.449 µM
same,TGI,MCF7 breast,2.59 µM
same,GI50,LOX IMVI melanoma,1.06 µM
same,TGI,LOX IMVI melanoma,6.52 µM
same,GI50,NCI-H226 lung,1.03 µM
same,TGI,NCI-H226 lung,3 µM
same,GI50,UO-31 renal,1.44 µM
same,TGI,UO-31 renal,3.99 µM
O=c1c(Nc2ccccc2)cn(CCOc2ccc(Cl)cc2)c(=O)n1CCOc1ccc(Cl)cc1,TGI,EKVX NSCLC,> 100 µM
same,TGI,ACHN renal,> 100 µM
same,TGI,SNB-19 CNS,> 100 µM
same,TGI,COLO 205 colon,> 100 µM
same,TGI,CAKI-1 renal,> 100 µM
same,TGI,CCRF-CEM leukemia,> 100 µM
same,TGI,MDA-N,> 100 µM
same,TGI,MDA-MB-435,> 100 µM
same,TGI,RPMI-8226 leukemia,> 100 µM
same,TGI,SF-268 CNS,> 100 µM
same,TGI,U251 CNS,> 100 µM
same,TGI,PC-3 prostate,> 100 µM
same,TGI,SW-620 colon,> 100 µM
same,TGI,UACC-257 melanoma,> 100 µM
same,TGI,OVCAR-4 ovarian,> 100 µM
same,TGI,SN12C renal,> 100 µM
same,TGI,NCI-H23 lung,> 100 µM
same,TGI,SK-MEL-5 melanoma,> 100 µM
same,TGI,NCI-H460 lung,> 100 µM
same,TGI,K-562 leukemia,> 100 µM
same,TGI,UACC-62 melanoma,> 100 µM
same,TGI,HCC-2998 colon,> 100 µM
same,TGI,IGROV1 ovarian,> 100 µM
same,TGI,HCT-15 colon,> 100 µM
same,TGI,RXF 393 renal,> 100 µM
same,TGI,KM12 colon,> 100 µM
same,TGI,DU-145 prostate,> 100 µM
same,TGI,HS 578T breast,> 100 µM
same,TGI,A498 renal,> 100 µM
same,TGI,HCT-116 colon,> 100 µM
same,TGI,SR leukemia,> 100 µM
same,TGI,MOLT-4 leukemia,> 100 µM
same,TGI,SK-MEL-28 melanoma,> 100 µM
same,TGI,A549 NSCLC,> 100 µM
same,TGI,M14 melanoma,> 100 µM
same,TGI,SF-295 CNS,> 100 µM
same,TGI,786-0 renal,> 100 µM
same,TGI,LOX IMVI melanoma,> 100 µM
same,TGI,UO-31 renal,> 100 µM
